In US9879014B2, “Method for screening substance capable of inhibiting abnormal splicing causative of onset or progress of disease” (KYOTO UNIVERSITY, priority 2013, dated 2018):
Entries after “also recorded” stand apart in the source; their conditions may differ.

Tests used:
[1] = system: pre-mRNA of the mutant human IKBKAP gene having the IVS20+6T→C mutation; assay: two-color fluorescent FD-type splicing reporter construct in HeLa cells (GFP/RFP); type: cell-based; details: HeLa cells transfected with FD-type reporter construct
Source text: A reporter construct (FD type) as illustrated in FIG. 1B was produced by utilizing exons 19 to 21 of a mutant human IKBKAP gene having the IVS20^+6T→C mutation as illustrated in FIG. 1A. In the reporter construct, a gene for a GST protein, exons 19 to 21 of a mutant human IKBKAP gene, a red fluorescent protein (RFP), and a green fluorescent protein (GFP) were connected in this order downstream of a CAG promoter. When this reporter construct underwent wild-type splicing, the gene for a GST protein and exons 19 to 21 of the mutant human IKBKAP gene were joined to form an mRNA of 3n+1 bases in length, and a stop codon (UAA) of the RFP gene was out-of-frame, so that the GFP gene was translated in the frame to express a green fluorescent protein. On the other hand, when this reporter construct underwent abnormal splicing, the gene for a GST protein and exons 19 to 21 of the mutant human IKBKAP gene were joined to form an mRNA of 3n bases in length, so that the RFP gene and the stop codon (UAA) of the RFP gene were translated in the frame to express a red fluorescent protein. The FD-type reporter construct was used to screen a compound capable of inhibiting abnormal splicing of a pre-mRNA that was transcribed from the construct. Specifically, the FD-type reporter construct was transfected into HeLa cells, and then a test compound was brought into contact with the HeLa cells and cultured. Next, fluorescence observation was performed after a predetermined time, and the fluorescence intensity ratio (GFP/RFP) of GFP (normal splicing products) to RFP (abnormal splicing products) was compared to the control (e.g., a solvent alone or kinetin (reference compound 1)), so that the compound with higher fluorescence intensity was determined. […] The FD-type reporter construct was transfected into HeLa cells, and then the compound 1 was brought into contact with the HeLa cells and cultured (compound concentration: […], and 50.0 μM). Next, fluorescence observation was performed each after 24 hours and 48 hours, and the fluorescence intensity ratio (GFP/RFP) was determined. […]

[2] = system: endogenous IKBKAP gene with the IVS20+6T→C mutation in cells of FD patients; assay: RT-PCR of spliced products of the endogenous IKBKAP gene in cells of FD patients; type: cell-based, human; details: cultured 60 hours
Experimental: The cells of FD patients were obtained from Coriell Institute. The endogenous IKBKAP gene in the cells of FD patients had the IVS20^+6T→C mutation. Compound 1 and the kinetin were added at a concentration of 2 μM or 50 μM to a culture medium of the cells of FD patients. The cells were cultured for 60 hours, collected, and then subjected to RT-PCR. As the control, untreated cells and DMSO (solvent) treated cells were used. FIG. 4 illustrates the results.

[3] = system: IKBKAP gene with the IVS20+6T→C mutation; details: disclosed in U.S. Pat. No. 7,737,110; cited from earlier work

SMILES | fluorescence intensity ratio (GFP/RFP) of GFP (normal splicing) to RFP (abnormal splicing) ([1]; 0.4, 2.0, 0.10, and 50.0 μM, after 24 hours and 48 hours) | degree of increase of GFP/RFP ratio compared with kinetin ([1]; after 24 hours and 48 hours) | screening outcome: GFP/RFP fluorescence intensity ratio compared to the control (solvent alone or kinetin) ([1]; after a predetermined time) | spliced products (mRNAs) of the endogenous IKBKAP gene by RT-PCR ([2]; 2 μM or 50 μM) | abnormal splicing inhibition activity compared with kinetin ([2]; RT-PCR) | concentration capable of inhibiting abnormal splicing ([2]; RT-PCR) [µM] | inhibition of abnormal splicing of the IKBKAP gene with the IVS20+6T→C mutation [3]
Clc1nc(NCc2ccco2)c2nc[nH]c2n1 [compound 1, 2-chloro-N-(2-furanylmethyl)-7H-purin-6-amine] | increased in a concentration-dependent manner; also recorded: increases the GFP/RFP ratio in a concentration-dependent manner | significantly higher than that of the kinetin; also recorded: superior to that of kinetin | selected as a candidate compound for inhibiting abnormal splicing | reduces the abnormal splicing products and increases the normal splicing products | about the same as that of the kinetin at a concentration of 50 μM; also recorded: superior to that of kinetin | ≤ 2 | –
c1coc(CNc2ncnc3nc[nH]c23)c1 [kinetin] | – | – | – | – | – | – | can inhibit abnormal splicing
